Experimental data published in patent US9701681B2, “Fused ring heteroaryl compounds and their use as Trk inhibitors” (CMG Pharmaceutical Co., Ltd., priority 2014, dated 2017).

Columns and labels:
[1] = tested on: KM12-luc cells; test: Cell proliferation assay (KM12); details: 72 hours exposure, read-out: IC50 (nM) Cell-based assay (KM12)
Protocol: (§1) Doxorubicin was purchased from Sigma Aldrich (D1515). All compounds were diluted in DMSO (Sigma Aldrich, D2650). AlamarBlue® cell viability reagent was purchased from Thermo Scientific (88952). CellTiter 96® AQueous One Solution Cell proliferation assay was purchased from Promega. KM12-luc cells were obtained from JCRB (National Institute of Health Sciences, Tokyo, Japan). They were maintained in DMEM medium (GIB-11965-118) supplemented with 10% fetal bovine serum (Gibco, 16000-044) and MEM Non-Essential Amino Acids Solution (Thermo Scientific, 11140-050). TF-1 cells were obtained from ATCC. They were maintained in RPMI medium (GIB-A10491) supplemented with 10% fetal bovine serum (Gibco, 16000-044), GM-CSF (Thermo Scientific, 11140-050), and β-NGF (R&D systems). Trypsin/EDTA was purchased from Gibco (GIB-25300-054, 0.05%). 96-well plates were purchased from Corning Inc.
(§2) The proliferation assay was performed for Chemical Compounds 1-61 s in media supplemented with 10% FBS, using AlamarBlue® cell viability reagent or CellTiter 96® AQueous One Solution Cell proliferation assay kit. Cells were cultured in humidified 37° C. incubator with 5% CO2. To evaluate the antiproliferation activity of compounds, TF-1 cells were adjusted to GM-CSF free media (RPMI, 10% FBS, and 1% penicillin-streptomycin) for 16 hr and were seeded in 96-well plates at 30,000 cells/well with medium (RPMI, 10% FBS, 1% penicillin-streptomycin and 10 ng/ml human β-NGF). KM12-luc were seeded at 10,000 cells per well into 96-well plates. After overnight incubation, serial dilutions of compounds were added to triplicate wells, and cells were exposed for 72 hours. The final concentration of DMSO was adjusted to 0.5% in media. Quantitation of cell growth was assessed using two kinds of reagent. 20 ul of AlamarBlue® reagent in an amount equal to 10% of the culture volume was added to each well and were incubated in humidified 37° C. incubator with 5% CO2 for 2 hr. Otherwise, 20 ul of CellTiter 96® reagent was added to each well and were incubated in the same conditions as previously described. Data were plotted, and GI50 values were calculated using GraphPad software. Table 1 below includes the results of the assays.

[2] = target: T1, TRK A, B & C kinase; test: TRK A, B & C kinase assay (ADP-Glo / HTRF KinEASE-TK); type: biochemical; details: ADP-Glo or HTRF KinEASE-TK kit, isoform not specified, read-out: IC50 (nM) Enzymatic assay
T1 construct: fused on or other part: Carna's Trk kinases are usually GST-tagged cytoplasmic domains
Protocol: ADP-Glo assay kit was purchased from Promega. poly (Glu, Tyr), Magnesium sulfate, Bovine serum albumin (BSA) and dimethylsulfoxide(DMSO) were purchased from Sigma-Aldrich. Tris-HCl buffer was purchased from BD Gentest. HTRF KinEASE-TK kit was purchased from cisbio. TRK A, B & C kinase was purchased from Carna bioscience.
Kinase assay was performed for Chemical Compounds 1-61 using two methods using luminescent ADP-Glo assay kit (Promega) and HTRF KinEASE-TK assay kit (cisbio). The luminescent ADP-Glo assay kit (Promega) measures ADP formed from a kinase reaction. ADP converted into ATP, which is then converted into light by Ultra-Glo luciferase. The HTRF KinEASE-TK assay kit (cisbio) measures tyrosine kinase activities using one substrate and a universal detection system.
ADP-Glo Assay Kit (Promega)
The protein kinase assay was performed for Chemical Compounds 1-61 at […] concentrations are 0.4 ng/ul of TrKA, 0.5 ng/ul of TrKB and 3 ng/ul of TrKC, respectively), 5 μL of 1 ug/ul stock solution of poly(glu, Tyr), 5 μL of compounds or assay buffer, 5 μL of ATP (125 μM stock solution).
The assay was started by incubating the reaction mixture in a 96-well plate at 30° C. for 1 hr. After the incubation, the assay was terminated by the addition of 25 […] Detection Reagent was added, and the 96-well plate was shaken and then incubated for additional 30 min at ambient temperature. The 96-well reaction plate was then read on an Enspire plate reader. The IC50 values were derived through a curve fitting using SigmaPlot.
HTRF KinEASE-TK Assay Kit (Cisbio)
The HTRF KinEASE-TK assay was performed for Chemical Compounds 1-61 in 384-well low volume microplate (Greiner). The HTRF KinEASE-TK assay format involves the two steps. The first step is kinase reaction step. This kinase reaction step was performed at RT (room temperature) in final volume of 10 ul according to the following assay reaction recipe: 10 ul of kinase mixture (Kinase (2 ul)+ATP (2 ul)+Substrate (2 ul)+Compound (4 ul)). Kinase final concentrations were 0.3 ng/ul of TRKA, 0.1 ng/ul of TRKB, 0.03 ng/ul of TRKC, respectively. ATP final concentrations were 14.7 uM (TRKA), 4.77 uM (TRKB), 25.6 uM (TRKC) respectively. TK-substrate final concentration was 0.3 ng/ul. The mixtures exposed to Dose response concentration (DRC) compound from 0 to 100 nM for 40 min. During the kinase reaction step, the kinase reaction was started by the addition of ATP. Kinase phosphorylates the substrate.
The second is detection step. 10 ul of detection reagents (5 ul Sa-XL 665 in EDTA+5 ul TK Antibody-Eu in EDTA) was added to kinase mixture. This step was performed at room temperature for 1 hr. The detection reagent detects phosphorylated substrates.
Finally 384-well reaction plate was then read on FlexStation 3 machine. The fluorescence was measured at 620 nm (Cryptate) and 665 nm (XL665). A ratio is calculated ([…]/620)×10^4 for each well. The IC50 value was derived through a curve fitting using GraphPad Prism. Table 1 below includes the results of the assays.

[3] = tested on: TF-1 cells; test: Cell proliferation assay (TF-1); details: 10 ng/ml human β-NGF, 72 hours exposure, read-out: IC50 (nM) Cell-based assay (TF-1)
Protocol: as §1, §2

Row | IC50 [2] | Compound | IC50 [1] | IC50 [3]
1 | < 10 nM | CC(C)(C)c1nnc(-c2cnn3ccc(N4CCCC4c4cncc(F)c4)nc23)o1 (stereo not drawn) [Chemical Compound 16, 2-tert-butyl-5-(5-(2-(5-fluoropyridin-3-yl)pyrrolidin-1-yl)pyrazolo[1,5-a]pyrimidin-3-yl)-1,3,4-oxadiazole] | < 100 nM | < 100 nM
2 | < 10 nM | CC(C)c1nnc(-c2cnn3ccc(N4CCC[C@@H]4c4cncc(F)c4)nc23)s1 [Chemical Compound 17, (R)-2-(5-(2-(5-fluoropyridin-3-yl)pyrrolidin-1-yl)pyrazolo[1,5-a]pyrimidin-3-yl)-5-isopropyl-1,3,4-thiadiazole] | < 10 nM | < 10 nM
3 | < 10 nM | CC(C)(C)c1nnc(-c2cnn3ccc(N4C[C@@H](F)C[C@@H]4c4cc(F)ccc4F)nc23)o1 [Chemical Compound 26, 2-tert-butyl-5-(5-((2R,4S)-2-(2,5-difluorophenyl)-4-fluoropyrrolidin-1-yl)pyrazolo[1,5-a]pyrimidin-3-yl)-1,3,4-oxadiazole] | < 10 nM | < 10 nM
4 | > 100 nM | CC(C)(C)c1nnc(-c2cnn3ccc(N4C[C@@H](F)C[C@H]4c4cc(F)ccc4F)nc23)o1 [Chemical Compound 27, 2-tert-butyl-5-(5-((2S,4S)-2-(2,5-difluorophenyl)-4-fluoropyrrolidin-1-yl)pyrazolo[1,5-a]pyrimidin-3-yl)-1,3,4-oxadiazole] | > 1000 nM | > 1000 nM
5 | < 10 nM | COc1ncc(F)cc1C1CCCN1c1ccn2ncc(-c3nnc(C(C)(C)C)o3)c2n1 (stereo not drawn) [Chemical Compound 28, 2-tert-butyl-5-(5-(2-(5-fluoro-2-methoxypyridin-3-yl)pyrrolidin-1-yl)pyrazolo[1,5-a]pyrimidin-3-yl)-1,3,4-oxadiazole] | < 10 nM | < 10 nM
6 | < 10 nM | Fc1ccc(F)c(C2CCCN2c2ccn3ncc(-c4cnco4)c3n2)c1 (stereo not drawn) [Chemical Compound 29, 5-(5-(2-(2,5-difluorophenyl)pyrrolidin-1-yl)pyrazolo[1,5-a]pyrimidin-3-yl)oxazole] | < 100 nM | < 100 nM
7 | < 10 nM | Fc1ccc(F)c(C2CCCN2c2ccn3ncc(-c4cnoc4)c3n2)c1 (stereo not drawn) [Chemical Compound 30, 4-(5-(2-(2,5-difluorophenyl)pyrrolidin-1-yl)pyrazolo[1,5-a]pyrimidin-3-yl)isoxazole] | < 100 nM | < 100 nM
8 | < 100 nM | Cc1noc(C)c1-c1cnn2ccc(N3CCCC3c3cc(F)ccc3F)nc12 (stereo not drawn) [Chemical Compound 31, 4-(5-(2-(2,5-difluorophenyl)pyrrolidin-1-yl)pyrazolo[1,5-a]pyrimidin-3-yl)-3,5-dimethylisoxazole] | < 1000 nM | < 1000 nM
9 | < 10 nM | Cc1nnc(-c2cnn3ccc(N4CCCC4c4cc(F)ccc4F)nc23)[nH]1 (stereo not drawn) [Chemical Compound 32, 5-(2-(2,5-difluorophenyl)pyrrolidin-1-yl)-3-(5-methyl-1H-1,2,4-triazol-3-yl)pyrazolo[1,5-a]pyrimidine] | < 100 nM | < 100 nM
10 | < 10 nM | CCNC(=O)/C=C/c1cnn2ccc(N3CCCC3c3cncc(F)c3)nc12 (stereo not drawn) [Chemical Compound 38, (E)-N-ethyl-3-(5-(2-(5-fluoropyridin-3-yl)pyrrolidin-1-yl)pyrazolo[1,5-a]pyrimidin-3-yl)acrylamide] | < 1000 nM | < 1000 nM
11 | < 10 nM | O=C(/C=C/c1cnn2ccc(N3CCCC3c3cncc(F)c3)nc12)NC1CC1 (stereo not drawn) [Chemical Compound 39, (E)-N-cyclopropyl-3-(5-(2-(5-fluoropyridin-3-yl)pyrrolidin-1-yl)pyrazolo[1,5-a]pyrimidin-3-yl)acrylamide] | < 1000 nM | < 1000 nM
12 | < 10 nM | CN(C)C(=O)/C=C/c1cnn2ccc(N3CCCC3c3cncc(F)c3)nc12 (stereo not drawn) [Chemical Compound 40, (E)-3-(5-(2-(5-fluoropyridin-3-yl)pyrrolidin-1-yl)pyrazolo[1,5-a]pyrimidin-3-yl)-N,N-dimethylacryl-amide] | < 1000 nM | < 100 nM
13 | < 10 nM | CCNC(=O)/C=C/c1cnn2ccc(N3CCCC3c3cc(F)ccc3F)nc12 (stereo not drawn) [Chemical Compound 41, (E)-3-(5-(2-(2,5-difluorophenyl)pyrrolidin-1-yl)pyrazolo[1,5-a]pyrimidin-3-yl)-N-ethylacrylamide] | < 100 nM | < 100 nM
14 | < 10 nM | CC(C)NC(=O)/C=C/c1cnn2ccc(N3CCCC3c3cc(F)ccc3F)nc12 (stereo not drawn) [Chemical Compound 42, (E)-3-(5-(2-(2,5-difluorophenyl)-pyrrolidin-1-yl)pyrazolo[1,5-a]pyrimidin-3-yl)-N-isopropylacrylamide] | < 100 nM | < 100 nM
15 | < 10 nM | O=C(/C=C/c1cnn2ccc(N3CCCC3c3cc(F)ccc3F)nc12)NC1CC1 (stereo not drawn) [Chemical Compound 43, (E)-N-cyclopropyl-3-(5-(2-(2,5-difluorophenyl)pyrrolidin-1-yl)pyrazolo[1,5-a]pyrimidin-3-yl)acrylamide] | < 100 nM | < 100 nM
16 | < 10 nM | CC(C)(C)NC(=O)/C=C/c1cnn2ccc(N3CCCC3c3cc(F)ccc3F)nc12 (stereo not drawn) [Chemical Compound 44, (E)-N-tert-butyl-3-(5-(2-(2,5-difluorophenyl)pyrrolidin-1-yl)pyrazolo-[1,5-a]pyrimidin-3-yl)acrylamide] | < 100 nM | < 100 nM
17 | < 10 nM | CN(C)C(=O)/C=C/c1cnn2ccc(N3CCCC3c3cc(F)ccc3F)nc12 (stereo not drawn) [Chemical Compound 45, (E)-3-(5-(2-(2,5-difluorophenyl)pyrrolidin-1-yl)pyrazolo[1,5-a]pyrimidin-3-yl)-N,N-dimethylacrylamide] | < 100 nM | < 100 nM
